Measurements reported in EPA's ToxRefDB 2.

Assays:
mouse [1] = conditions: Subchronic oral toxicity in rodents, b6c3f1, Feed, dose end: 13 week, group: systemic
mouse [2] = conditions: Carcinogenicity, b6c3f1, Oral, [Not Specified], dose end: 104 week, group: systemic
rat [3] = conditions: Subchronic oral toxicity in rodents, fischer, Feed, dose end: 13 week, group: systemic
dog [4] = conditions: Chronic toxicity, beagle, Oral, Capsule, dose end: 52 week, group: systemic
rat [5] = conditions: Multigenerational reproductive toxicity study, other, Oral, Feed, dose end: 2 generation
rat [6] = conditions: Combined chronic toxicity/carcinogenicity; fischer; Oral; Feed; dose end: 104 week; group: systemic; systemic / in life observation / clinical signs / body cold to touch + systemic / in life observation / clinical signs / emaciation + …
dog [7] = conditions: Subchronic oral toxicity in nonrodent, beagle, Capsule, dose end: 13 week, group: systemic, systemic / in life observation / clinical signs / salivation + systemic / pathology microscopic / liver / proliferation
rat [8] = conditions: Carcinogenicity, sprague dawley, Oral, Feed, dose end: 104 week, group: systemic
dog [9] = conditions: Chronic toxicity, beagle, Oral, Feed, dose end: 52 week, group: systemic
mouse [10] = conditions: Carcinogenicity; cd1; Oral; [Not Specified]; dose end: 24 month; group: systemic; systemic / in life observation / body weight / body weight gain
rat [11] = conditions: Subchronic oral toxicity in rodents, sprague dawley, Feed, dose end: 95 day, group: systemic
dog [12] = conditions: Subchronic oral toxicity in nonrodent, beagle, Feed, dose end: 13 week, group: systemic, systemic / clinical chemistry / alkaline phosphatase (alp/alk) / alkaline phosphatase (alp/alk) + systemic / organ weight / prostate / …
rat [13] = conditions: Chronic toxicity; sprague dawley; Oral; Feed; dose end: 104 week; group: systemic; systemic / in life observation / body weight / body weight + systemic / in life observation / body weight / body weight gain + systemic / …
[14] = systemic / pathology microscopic / liver / [other]
[15] = systemic / pathology microscopic / liver / [other] + systemic / in life observation / body weight / body weight + systemic / in life …
[16] = systemic / pathology microscopic / liver / hematopoietic cell proliferation granulocytic + systemic / pathology gross / liver / accentuated …
[17] = systemic / clinical chemistry / alkaline phosphatase (alp/alk) / alkaline phosphatase (alp/alk) + systemic / clinical chemistry / gamma …
[18] = systemic / clinical chemistry / cholesterol / cholesterol
[19] = systemic / pathology microscopic / liver / [other] + systemic / pathology microscopic / liver / hyperplasia
[20] = systemic / pathology microscopic / liver / [other] + systemic / pathology microscopic / liver / hyperplasia + systemic / in life observation…
[21] = group: offspring, systemic / in life observation / body weight / offspring (pup) weight + systemic / in life observation / body weight / offspring (pup) …
[22] = group: parental, systemic / pathology microscopic / liver / hyperplasia
[23] = group: parental, systemic / pathology microscopic / liver / hyperplasia + systemic / pathology microscopic / liver / inflammation
[24] = systemic / in life observation / body weight / body weight + systemic / in life observation / body weight / body weight gain
[25] = systemic / in life observation / body weight / body weight + systemic / in life observation / body weight / body weight gain + systemic / in…
[26] = systemic / organ weight / prostate / absolute + systemic / organ weight / prostate / relative to body weight + systemic / clinical chemistry…
[27] = systemic / pathology microscopic / liver / vacuolization
[28] = systemic / pathology microscopic / liver / vacuolization + systemic / hematology / erythrocyte (rbc) count differential / erythrocyte (rbc…

COc1cc(OC)nc(Oc2cccc(Oc3nc(OC)cc(OC)n3)c2C(=O)[O-])n1.[Na+] [Bispyribac-sodium]
LEL (mouse [1]; [14]): 699 mg/kg/day | LOAEL (mouse [1]; [14]): 699 mg/kg/day | NEL (mouse [1]; [15]): 68.6 mg/kg/day | NOAEL (mouse [1]; [15]): 68.6 mg/kg/day | LOAEL (mouse [2]; systemic / pathology microscopic / liver / hematopoietic cell proliferation granulocytic + systemic / in life observation / body weight / …): 353 mg/kg/day | LEL (mouse [2]; [16]): 1.4 mg/kg/day | NEL (mouse [2]; [16]): < 1.4 mg/kg/day | NOAEL (mouse [2]; systemic / pathology microscopic / liver / hematopoietic cell proliferation granulocytic + systemic / pathology microscopic / liver / giant …): 14.1 mg/kg/day | LOAEL (rat [3]; [17]): 724 mg/kg/day | NOAEL (rat [3]; [17]): 71.9 mg/kg/day | LEL (rat [3]; [18]): 8.1 mg/kg/day | NEL (rat [3]; [18]): < 8.1 mg/kg/day | LEL (dog [4]; [19]): 100 mg/kg/day | LOAEL (dog [4]; [19]): 100 mg/kg/day | NEL (dog [4]; [20]): 10 mg/kg/day | NOAEL (dog [4]; [20]): 10 mg/kg/day | LEL (rat [5]; [21]): 759 mg/kg/day | LOAEL (rat [5]; [21]): 759 mg/kg/day | NEL (rat [5]; [21]): 75.7 mg/kg/day | NOAEL (rat [5]; [21]): 75.7 mg/kg/day | LEL (rat [5]; [22]): 75.7 mg/kg/day | LOAEL (rat [5]; [22]): 75.7 mg/kg/day | NEL (rat [5]; [23]): 1.5 mg/kg/day | NOAEL (rat [5]; [23]): 1.5 mg/kg/day | LEL (rat [6]): 194 mg/kg/day | LOAEL (rat [6]): 194 mg/kg/day | NEL (rat [6]): 10.9 mg/kg/day | NOAEL (rat [6]): 10.9 mg/kg/day | LEL (dog [7]): 600 mg/kg/day | LOAEL (dog [7]): 600 mg/kg/day | NEL (dog [7]): 100 mg/kg/day | NOAEL (dog [7]): 100 mg/kg/day

COc1ccc(C(=CC(=O)N2CCOCC2)c2ccc(Cl)cc2)cc1OC [Dimethomorph]
LEL (rat [8]; [24]): 46.3 mg/kg/day | LOAEL (rat [8]; [24]): 46.3 mg/kg/day | NEL (rat [8]; [25]): 11.3 mg/kg/day | NOAEL (rat [8]; [25]): 11.3 mg/kg/day | LOAEL (dog [9]; systemic / organ weight / prostate / absolute + systemic / organ weight / prostate / relative to body weight): 44.6 mg/kg/day | LEL (dog [9]; [26]): 44.6 mg/kg/day | NEL (dog [9]; [26]): 14.7 mg/kg/day | NOAEL (dog [9]; [26]): 14.7 mg/kg/day | LEL (mouse [10]): 977 mg/kg/day | LOAEL (mouse [10]): 977 mg/kg/day | NEL (mouse [10]): 96.8 mg/kg/day | NOAEL (mouse [10]): 96.8 mg/kg/day | LEL (rat [11]; [27]): 2.9 mg/kg/day | NEL (rat [11]; [27]): < 2.9 mg/kg/day | LOAEL (rat [11]; [28]): > 73 mg/kg/day | NOAEL (rat [11]; [28]): ≥ 73 mg/kg/day | LEL (dog [12]): 43 mg/kg/day | LOAEL (dog [12]): 43 mg/kg/day | NEL (dog [12]): 15 mg/kg/day | NOAEL (dog [12]): 15 mg/kg/day | LEL (rat [13]): 57.7 mg/kg/day | LOAEL (rat [13]): 57.7 mg/kg/day | NEL (rat [13]): 11.9 mg/kg/day | NOAEL (rat [13]): 11.9 mg/kg/day
